Consider 5 compounds from US10808128B2, “Compounds as fluorescent probes, synthesis and applications thereof” (priority 2018, dated 2020).

Entries after “also recorded” stand apart in the source; their conditions may differ.

Series [1] deals with mitochondria of human primary fibroblast cells. Description: Colocalization of HC-2 with MitoTracker Green. It counts as cell-based. The conditions noted are these: live human primary fibroblast cells. The protocol: (§1) Formula I compounds (dyes) are positively charged and can be easily targeted to the mitochondria of the live cells. The dyes are highly specific for functional mitochondria. Localization is confirmed by ‘colocalization’ assays with mitochondria specific commercial dyes and high-resolution microscopy. […] This stock solution was stored at about 4° C.

Series [2] deals with mitochondria of human embryonic kidney (HEK) cells. Description: Effect of CCCP on HC-2 fluorescence. As to conditions: 5 μM CCCP. It counts as cell-based. The protocol: as §1
Series [3] relates to mitochondria of live HEK 293 cells. Nature of the series: Effect of Monensin on HC-2 stained mitochondria. As to conditions: HC-2 250 nM, Monensin 10 μM, 0-90 minutes. It counts as cell-based, human.
Series [4] deals with mitochondria of live human primary fibroblasts. Description: Photo-toxicity study during repeat photo-illumination and fast mitochondrial imaging. It counts as cell-based. The conditions noted are these: for photostability during fast imaging of mitochondria: human primary fibroblasts, fast time lapse (10 sec interval, 300 seconds). From the text:
Fast (10 sec interval) time lapse images were acquired for 300 seconds.

Series [5] deals with live human pluripotent stem cells (hPSCs). Description: Mitochondrial imaging of live pluripotent stem cells. Type of series: cell-based. As to conditions: 250 nM, 30 minutes, confocal.
The nature of series [6]: Stability of dye stock solution. The conditions noted are these: 1 mM in 50% DMSO-water, stored at about 4° C. It counts as physicochemical. The protocol:
as §1

Series [7] in a line: UV-Vis and steady state fluorescence of HC-1 in ten solvents; fluorescence quantum yield. It counts as physicochemical. As to conditions: for Quantum yield: reference Rhodamine B (0.55). The protocol: UV-Vis measurement was performed in Shimadzu UV-Vis spectrophotometer (U2600) and steady state fluorescence study was performed in Horiba-Yobin (Fluorolog3) fluorescence spectrophotometer. For all the fluorescence measurements, excitation and emission slits were kept constant at 2 nm (except studies on pH dependence: excitation/emission=2/4 nm respectively). Final concentration was 2.5 μM (except for measurement of fluorescence quantum yield [1 μM] and lifetime [25 μM]) for all the spectroscopic studies.
The HC-1 absorption and fluorescence were recorded in ten solvents of varying polarity and viscosity.
An aqueous solution of Rhodamine B was used as reference. Fluorescence (integrated intensities) and absorbance values were obtained and the quantum yield was calculated using the following equation;
φ and φr: Quantum yield of sample and reference (0.55) respectively; A and Ar: Absorbance of sample and reference respectively; L: path length of the cuvette (here is same); N and Nr: refractive index of the solvents containing sample and reference; I and Ir: Integrated intensity of fluorescence emission of sample and reference respectively.

Series [8] in a line: Effect of pH, ions, serum protein, plasmid DNA and glutathione on HC-1 fluorescence. Type of series: physicochemical. As to conditions: HC-1 2.5 μM. The protocol:
0.1 M buffers of identical ionic strength solution were used for carryout the experiments. For pH 3, 4, 5 and 5.5, acetate buffer was used, for pH 6.2, 6.9 and 7.4, phosphate buffer was used and for pH 8 and 9.2, Tris-HCl buffer was used. The used salts were Sodium Chloride (NaCl), Potassium Chloride (KCl), Magnesium Chloride (MgCl2), Zinc Chloride (ZnCl2), Nickel Chloride (NiCl2) and Ferric Chloride (FeCl3). Final concentration of the cations (except Zn) was 10 mM and prepared in 1× Phosphate Buffer Saline. For Zn (II), saturated aqueous solution was used. Bovine Serum Albumin (BSA), plasmid DNA and glutathione concentration were at 1 mg−ml^−1, 5 μg−ml^−1 and 10 μM respectively. […] Fluorescence measurement was performed after 30 minutes of incubation.

The subject of series [9] is mitochondria of U2OS cells. Description: Imaging of live cell mitochondria by HC-1 and co-localization assay with MitoTracker Green. Type of series: cell-based, human. The conditions noted are these: confocal. The protocol:
For imaging, cells were plated on fibronectin coated (final concentration of 10 μg/ml) glass-bottomed dishes and allowed to attach. […] Cells were then washed twice with DPBS and fresh serum-free media was added.
Co-localization assay of HC-1 using MitoTracker Green: Cells were labeled using both MitoTracker Green and HC-1 dyes (by aforementioned protocol). Confocal images were taken using Olympus FV1000 Confocal microscope (×60 oil immersion objective at 1.6× optical zoom). Excitation parameters used were 488 nm excitation and 500-530 nm emission for MitoTracker Green, and 543 nm excitation and emissions above 560 nm for HCl. Pearson correlation dot plot was constructed using Coloc2 plugin of ImageJ.

Series [10] deals with mitochondria of U2OS cells. Description: Effect of CCCP on HC-1 fluorescence (mitochondrial membrane potential). Type of series: cell-based, human. The conditions noted are these: 5 μM CCCP. The protocol:
Effect of Carbonyl Cyanide 3-Chloro Phenylhydrazone [CCCP]: Dye-labeled cells were imaged on the Olympus IX83 inverted microscope coupled to a 560 nm laser line connected to a Evolve 512 Delta EMCCD camera. 5 μM CCCP (final concentration) was used for the assay. Different regions were selected on the dish and imaged before the addition of CCCP and after addition at an interval of about 5 minutes for duration of about 15 minutes.

The test system of series [11] is mitochondria of U2OS cells. Nature of the series: Effect of Monensin on HC-1 stained mitochondria. Type of series: cell-based, human. The conditions noted are these: Monensin 10 µM / 10 μM, 0, 30, 60 minutes.
The test system of series [12] is E14TG2a mouse embryonic stem cells. Nature of the series: Imaging HC-1 stained mitochondria of embryonic stem cells, incl. long term imaging to check cytotoxicity. It counts as cell-based. As to conditions: E14TG2a mouse ESCs with LIF. The protocol:
E14TG2a (mouse embryonic stem cells) were cultured in GMEM supplemented with FBS, Glutamine, Non-essential amino acids, β-mercaptoethanol, Penicilin-streptomycin and depending on culture conditions, with or without […] (LIF). […] Images were acquired on the FV1000 confocal microscope. Imaging set up used in the present example was same as the imaging set up used for colocalization described above.
Confocal (FV1000, Olympus) images were acquired for 12 hours at 3 hours interval.

Series [13] deals with primary mouse fibroblasts. Nature of the series: Imaging local order and viscosity of mitochondria during fibroblast activation. Type of series: cell-based. As to conditions: HC-1 250 nM with TMRE 125 nM. The protocol: A study on the use of HC-1 for imaging local order and viscosity of mitochondria and use of said imaging to measure changes in mitochondrial function and cellular state and function was carried out.

Series [14] in a line: HC-1 fluorescence in surfactant micelles (SDS, TritonX-100); CMC by sigmoidal fitting. Type of series: physicochemical. As to conditions: from HC-1 (2.5 μM) fluorescence intensity versus surfactant concentration. The protocol: Initially 300 mM solution of sodium dodecyl sulfate (SDS) in milli-Q water was prepared. Then, solution of varied concentrations (1-300 mM) by serial dilution was prepared. All the prepared solutions were heated at 70° C. for about 15 minutes and stored at room temperature overnight. Similarly, a stock of 10 mM was prepared for TritonX-100 also. Then solution of different concentration (0.05-4 mM) was prepared by serial dilution.

Where [15] appears, read: HC-1 in Ethylene glycol (13.5 cP).
The mark [16] stands for this setting: HC-1 in Glycerol (9.50 cP as printed).

Turning to `CN(C)c1ccc(/C=C/C=C/C2=[N+](C)c3ccc4ccccc4c3C2(C)C)cc1.[I-]` [HC-2, 2-((1E,3E)-4-(4-(Dimethylamino)phenyl)buta-1,3-dien-1-yl)-1,1,3-trimethyl-1H-benzo[e]indol-3-ium iodide], in [1], the “2D intensity correlation with MitoTracker Green (Pearson R)” value worked out at 0.91. In addition, the “effect of CCCP on HC-2 fluorescence” value in series [2] is “loss of HC-2 fluorescence”. For the same compound, the “effect of Monensin on HC-2 fluorescence in mitochondria” value in series [3] is recorded as “time-dependent increase in fluorescence intensity; also recorded: Time dependent increase in fluorescence intensity”. Also, the “photostability during fast imaging of mitochondria” value (“photostability during fast imaging” below) in series [4] is “highly photo-stable”. Also, the “staining of mitochondria of live hPSCs” value in series [5] is reported as “uniform staining of the mitochondria”. The “stability of stock solution” value in series [6] is “stable for one year”.

With `CN(C)c1ccc(/C=C/C2=[N+](C)c3ccc4ccccc4c3C2(C)C)cc1.[I-]` [HC-1, (E)-2-(4-(Dimethylamino)styryl)-1,1,3-trimethyl-1H-benzo[e]indol-3-ium iodide], the λabs in [7] (HC-1 in Acetone (0.32 cP)) was found to be 553 nm; in series [7] (HC-1 in Acetonitrile (0.37 cP)), 577 nm; in series [7] (HC-1 in Benzene (0.6 cP)), 548 nm; in [7] (HC-1 in DMF (0.85 cP)) it was 553 nm; in series [7] (HC-1 in Ethanol (1.2 cP)), 556 nm; in series [7] (setting [15]), 562 nm. Further, the λabs is 564 nm in series [7] (setting [16]), 552 nm in series [7] (HC-1 in Methanol (0.6 cP)) and 542 nm in [7] (HC-1 in Water (1 cP)). The λem worked out at 606 nm in series [7] (HC-1 in Acetone (0.32 cP)); 613 nm in series [7] (HC-1 in Acetonitrile (0.37 cP)); 608 nm in series [7] (HC-1 in Benzene (0.6 cP)); 608 nm in series [7] (HC-1 in DCM (0.43 cP)); 610 nm in series [7] (HC-1 in DMF (0.85 cP)); 607 nm in series [7] (HC-1 in Ethanol (1.2 cP)). In addition, the λem is 610 nm in series [7] (setting [15]), 610 nm in series [7] (setting [16]), 603 nm in [7] (HC-1 in Methanol (0.6 cP)) and 605 nm in [7] (HC-1 in Water (1 cP)). Further, the Quantum yield in series [7] (HC-1 in Acetone (0.32 cP)) is reported as 0.014 ± 0.0002; in series [7] (HC-1 in Acetonitrile (0.37 cP)), 0.028 ± 0.0002; in series [7] (HC-1 in Benzene (0.6 cP)) it was 0.014 ± 0.0001; in series [7] (HC-1 in DCM (0.43 cP)), 0.033 ± 0.0005; in series [7] (HC-1 in DMF (0.85 cP)), 0.028 ± 0.0003; in [7] (HC-1 in Ethanol (1.2 cP)), 0.024 ± 0.0002. The Quantum yield came out at 0.087 ± 0.0004 in [7] (setting [15]), 0.477 ± 0.0005 in series [7] (setting [16]), 0.018 ± 0.0002 in series [7] (HC-1 in Methanol (0.6 cP)) and 0.034 ± 0.001 in [7] (HC-1 in Water (1 cP)). In addition, the “effect of pH on HC-1 emission” value in [8] (0.1 M buffers pH 3-9.2, small changes at ~pH 3 or ~pH 9) was “little or no effect”. The “effect of metal ions, serum proteins, plasmid DNA and glutathione (GSH) on HC-1 emission” value in series [8] (30 minutes incubation) is “did not significantly affect”. Moreover, the “2D intensity correlation with MitoTracker Green (Pearson R)” value in [9] is 0.95. Further, in series [10], the “effect of CCCP on HC-1 fluorescence” value was “rapid and complete loss of HC-1 fluorescence”. The “effect of Monensin on HC-1 fluorescence in mitochondria” value in series [11] is “significant increase in HC-1 fluorescence; also recorded: sensitive to changes in mitochondrial ordering”. In addition, the “mitochondrial staining of embryonic stem cells” value in series [12] is given as “bright staining of the mitochondrial structures”. The “photostability during fast imaging” value in series [4] is “highly photo-stable; also recorded: significantly more photostable”. In addition, in [5], the “staining of mitochondria of live hPSCs” value was “uniform staining of the mitochondria”. Further, the “change of mitochondrial local ordering in activated fibroblasts” value in series [13] is on record as “increase in local ordering of the mitochondria”.

Turning to `CCCCCCCCCCCCOS(=O)(=O)[O-].[Na+]` [SDS, sodium dodecyl sulphate], the “critical micellar concentration (CMC)” value in series [14] is recorded as approximately 7.5 mM.

Take TritonX-100: in series [14], the “critical micellar concentration (CMC)” value is approximately 1 mM.

On to “tetramethylrhodamine, ethyl ester [TMRE, reference compound]”, for which, in series [4], the “photo-toxicity during repeat photo-illumination” value was “irradiation induced depolarization of mitochondrial membrane” and the “photostability during fast imaging” value was “photobleaches”.
